Like-named read-outs stand apart in the source and are kept apart here.
Legend:
[1] = Stability to Phase I metabolism in rat S9 liver fraction; type: in vitro ADME; conditions: after 90 min, 37° C.
Summary of the method: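 Phase I stability in human and rat hepatic S9 at 37 °C, sampled up to 90 min. Samples were stopped with acidified acetonitrile on ice, then quantified by HPLC-UV or LC-MS/MS.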

[2] = system: B 697 promyelocytic cell line; experiment: Cytotoxicity on 697 cell line (CellTiter 96); type: cell-based; conditions: 72 hours incubation, read-out: 697 TOXICITY
Summary of the method: (§1)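 Mitochondrial-function readout (CellTiter 96 Aqueous One) after 72 h compound exposure, begun 24 h post-seeding. Dose ranges: 697 cells, 1 to 10000 nM at 2×10^4 cells/well; PBMCs, 1.5 to 10000 nM at 5×10^5 cells/well.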

[3] = system: peripheral blood mononuclear cells (PBMCs); experiment: Cytotoxicity on PBMCs (CellTiter 96); type: cell-based; conditions: PBMC, 72 h; read-out: PBMC TOXICITY (72 h)
Summary of the method: as §1

[4] = Stability in human plasma; type: in vitro ADME; conditions: after 4 hours, 37° C.
Procedure: In order to evaluate the stability to circulating enzymes, test compounds were incubated in human and rat plasma at 37° C. in a thermostated oscillating bath. Each test compound was incubated at μM (50 μM when the samples were analysed by UV/HPLC, 1 or 2 μM when the samples were analysed by LC-MS/MS) concentration for 0, 15, 30 min and 1, 2 and 4 hours. The reaction was stopped placing tubes on ice bath and adding acidified acetonitrile. After centrifugation for 10 minutes at 14000 rpm, an aliquot of the supernatant was diluted with water, filtered with 0.45 μm syringe filters and injected in HPLC-UV or in LC-MS/MS. The percentages of amount remaining at the various times of incubation with respect to initial amount were calculated. The half-life in plasma was also calculated.

Stability in rat plasma = type: in vitro ADME; conditions: after 4 hours, 37° C.
Summary of the method: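 Compounds incubated at 37° C in rat or human plasma at 50 μM (UV/HPLC) or 1 or 2 μM (LC-MS/MS) for 0–4 h. Reaction stopped with acidified acetonitrile on ice; percent remaining versus initial amount and plasma half-life calculated.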

recombinant human HDAC6 = biological target: T1, recombinant human HDAC6 (Homo sapiens, UniProt Q9UBN7); experiment: Enzymatic screening on recombinant human HDAC6; type: biochemical; conditions: Table 2
T1 sequence (Q9UBN7 1-1215): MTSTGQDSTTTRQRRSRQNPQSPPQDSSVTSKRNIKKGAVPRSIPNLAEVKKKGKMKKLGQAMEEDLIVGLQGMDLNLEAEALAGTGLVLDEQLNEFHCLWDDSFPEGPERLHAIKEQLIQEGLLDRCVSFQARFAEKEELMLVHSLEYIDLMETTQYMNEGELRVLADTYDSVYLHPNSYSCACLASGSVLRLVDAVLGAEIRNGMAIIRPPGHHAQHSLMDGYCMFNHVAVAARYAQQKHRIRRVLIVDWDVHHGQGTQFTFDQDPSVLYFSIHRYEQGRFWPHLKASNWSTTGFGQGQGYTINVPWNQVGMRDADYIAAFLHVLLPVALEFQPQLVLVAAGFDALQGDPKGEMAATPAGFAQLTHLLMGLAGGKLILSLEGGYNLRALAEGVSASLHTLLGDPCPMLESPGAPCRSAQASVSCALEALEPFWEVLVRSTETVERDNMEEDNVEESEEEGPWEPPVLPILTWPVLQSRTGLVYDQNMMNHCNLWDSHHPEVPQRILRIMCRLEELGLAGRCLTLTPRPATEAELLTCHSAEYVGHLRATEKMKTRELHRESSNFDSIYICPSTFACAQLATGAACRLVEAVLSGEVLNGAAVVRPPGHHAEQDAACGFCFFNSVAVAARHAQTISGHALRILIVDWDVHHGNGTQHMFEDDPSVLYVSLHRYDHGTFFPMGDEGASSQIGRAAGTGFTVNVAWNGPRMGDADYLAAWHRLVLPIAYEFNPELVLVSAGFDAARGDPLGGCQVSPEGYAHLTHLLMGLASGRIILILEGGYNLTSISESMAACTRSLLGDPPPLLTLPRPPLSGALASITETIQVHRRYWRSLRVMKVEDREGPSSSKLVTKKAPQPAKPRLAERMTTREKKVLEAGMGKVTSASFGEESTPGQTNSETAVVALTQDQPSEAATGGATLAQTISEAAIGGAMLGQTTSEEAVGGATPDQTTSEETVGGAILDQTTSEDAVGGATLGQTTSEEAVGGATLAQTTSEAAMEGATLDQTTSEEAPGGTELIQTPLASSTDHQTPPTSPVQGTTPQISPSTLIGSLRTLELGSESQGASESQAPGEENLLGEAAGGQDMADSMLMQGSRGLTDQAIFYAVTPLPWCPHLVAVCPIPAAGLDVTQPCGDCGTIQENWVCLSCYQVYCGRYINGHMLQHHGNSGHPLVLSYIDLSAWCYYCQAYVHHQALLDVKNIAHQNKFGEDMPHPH
Summary of the method: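 Recombinant human enzyme was incubated with compound at 30 °C for an isoform-dependent time, then substrate (FLUOR DE LYS, FLUOR DE LYS-Green or trifluoroacetyl-L-lysine) was added as a 2× solution in 25 mM Tris-HCl pH 8, 130 mM NaCl, 0.05% Tween-20, 10% glycerol. The deacetylation reaction then proceeded at 30 °C.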

[5] = Stability to Phase I metabolism in human S9 liver fraction; type: in vitro ADME
Procedure: Test compounds were incubated in rat and human liver S9 fraction at 37° C. up to 90 minutes in order to evaluate their stability to Phase I metabolism by hepatic enzymes. […] The reaction was stopped placing samples on ice bath and adding acidified acetonitrile. After centrifugation (10 minutes at 14000 rpm) an aliquot of the supernatant was diluted water, filtered with 0.45 μm regenerated cellulose syringe filters and injected in HPLC-UV or in LC-MS/MS. The percentages of the amount remaining at the various incubation times with respect to the initial amount were calculated. The intrinsic clearance was also calculated.

human PBMCs = experiment: Mixed Lymphocytes Reaction (MLR) with human PBMCs (IFN-γ, TNF-α, IL-6); type: cell-based; conditions: PBMC, 144 h, two-way MLR, 6 days, 0.05 μM, negative = induction
Procedure: In order to study HDAC6 inhibitors ability to inhibit the activation of allogenic T CD4+ cells, a Mixed Lymphocytes Reaction (MLR or mixed lymphocyte culture, CLM) assay was performed. This is a reaction involving blast transformation of in vitro cultured lymphocytes in the presence of allogeneic lymphocytes. There is the so-called “two-way” reaction wherein the two lymphocyte populations stimulate each other to proliferate, and the so-called “one way” reaction, wherein the proliferation of one of the two populations is inhibited by mitomycin C or irradiation, these cells provide proliferation stimulus (stimulator) to the so-called “responder” cells.
Human peripheral blood mononuclear cells (PBMCs) used in MLR were obtained by Ficoll gradient separation from Buffy Coat of healthy donors.
We used a two-way MLR. The cells from the two donors were plated at 1:1 ratio (allogenic stimulation) to the final concentration of 2×10^5 per well in U-bottom 96 well plates in RPMI 1640 medium with 10% FBS and antibiotics. As a control we individually plated the cells from each donor (singenic stimulus). The experiment for each inhibitor was set in deduplicate for allogeneic stimuli and in quintuplicate for singenic stimuli. The cells were cultured for 6 days in an incubator at 37° C.
After 6 days the effect of the test compounds was evaluated by measuring the production of pro-inflammatory cytokines recognized to be characteristics of this assay.
For this purpose, the culture supernatant was harvested and used for IFN-γ, TNF-α and IL-6 inflammatory cytokine assay.
The JAK inhibitor ruxolitinib was used as the active reference compound in the test.
Values in the table indicate the inhibition percentages. Negative values indicate an induction.

Compound	residual percentage in rat S9 fraction [1]	residual percentage in human plasma [4]	residual percentage in rat plasma (Stability in rat plasma)	IC50 (recombinant human HDAC6; read-out: HDAC6 IC50)	residual percentage in human S9 fraction ([5]; human, 90 min, pH 7.4)	IC50 [2]	IC50 [3]	inhibition at 0.05 µM (human PBMCs; read-out: MLR IFN-γ inhibition percentage)	inhibition at 0.05 µM (human PBMCs; read-out: MLR IL-6 inhibition percentage)	inhibition at 0.05 µM (human PBMCs; read-out: MLR TNF-α inhibition percentage)	IC50 (recombinant human HDAC6; HDAC6 IC50 (nM))	residual percentage in human S9 fraction ([5]; human liver S9 fraction, after 90 min, 37° C.)
N#CC[C@H](C1CCCC1)n1cc(-c2ncnc3[nH]ccc23)cn1 [ruxolitinib, reference compound]	–	–	–	–	–	–	–	87.9%	73.3%	61.2%	–	–
Cn1c(Sc2c(F)cc(C(=O)NO)cc2F)nnc1-c1ccc(CCN2CCCC2)nc1 [comp. 210, 3,5-difluoro-4-[[4-methyl-5-[6-(2-pyrrolidin-1-ylethyl)-3-pyridyl]-1,2,4-triazol-3-yl]sulfanyl]benzenecarbohydroxamic acid]	71%	79%	84%	7 nM	80%	10400 nM	> 10000 nM	–	–	–	–	–
Cc1cc(-c2nnc(Sc3c(F)cc(C(=O)NO)cc3F)n2C)nn1C [comp. 100, 4-[[5-(1,5-dimethylpyrazol-3-yl)-4-methyl-1,2,4-triazol-3-yl]sulfanyl]-3,5-difluoro-benzenecarbohydroxamic acid]	30%	92%	80%	–	–	7090 nM	10000 nM	–	–	–	7 nM	76%
Cn1c(Sc2c(F)cc(C(=O)NO)cc2F)nnc1-c1coc(CN2CCOCC2)c1 [comp. 203, 3,5-difluoro-4-[[4-methyl-5-[5-(morpholinomethyl)-3-furyl]-1,2,4-triazol-3-yl]sulfanyl]benzenecarbohydroxamic acid]	58%	95%	94%	14 nM	74%	15200 nM	> 10000 nM	–	–	–	–	–
CC1(C)CC(=O)c2c(S(C)(=O)=O)sc(-c3nnn(Cc4ccc(C(=O)NO)cc4)n3)c2C1 [compound 74]	61%	100%	94%	17 nM	84%	2280 nM	2000 nM	–	–	–	–	–
CN(C)S(=O)(=O)c1ccc(F)c(-c2nnc(Sc3ccc(C(=O)NO)cc3)n2C)c1 [compound 76]	76%	96%	98%	28 nM	77%	> 10000 nM	> 10000 nM	–	–	–	–	–

More lines, main results first:

residual percentage in rat S9 fraction [1]	residual percentage in human plasma [4]	residual percentage in rat plasma (Stability in rat plasma)	IC50 (recombinant human HDAC6; read-out: HDAC6 IC50)	residual percentage in human S9 fraction ([5]; human, 90 min, pH 7.4)	Compound	IC50 [2]	IC50 [3]	inhibition at 0.05 µM (human PBMCs; read-out: MLR IFN-γ inhibition percentage)	inhibition at 0.05 µM (human PBMCs; read-out: MLR IL-6 inhibition percentage)	inhibition at 0.05 µM (human PBMCs; read-out: MLR TNF-α inhibition percentage)	IC50 (recombinant human HDAC6; HDAC6 IC50 (nM))	residual percentage in human S9 fraction ([5]; human liver S9 fraction, after 90 min, 37° C.)
9%	99%	73%	3 nM	64%	O=C(NO)c1ccc(Cc2nnc(-c3ccccc3)s2)cc1 [compound 190, 4-[(5-phenyl-1,3,4-thiadiazol-2-yl)methyl]benzenecarbohydroxamic acid]	333 nM	983 nM	–	–	–	–	–
66%	100%	79%	11 nM	93%	CN(C)S(=O)(=O)c1cccc(-c2nnc(Cc3ccc(C(=O)NO)cc3)o2)c1 [comp. 3, 4-((5-(3-(N,N-dimethylsulfamoyl)phenyl)-1,3,4-oxadiazol-2-yl)methyl)-N-hydroxybenzamide]	2880 nM	735 nM	–	–	–	–	–
5%	100%	78%	9 nM	72%	O=C(NO)c1ccc(Cc2noc(-c3ccccc3)n2)cc1 [compound 189, 4-[(5-phenyl-1,2,4-oxadiazol-3-yl)methyl]benzenecarbohydroxamic acid]	291 nM	1050 nM	–	–	–	–	–
88%	94.3%	98.5%	4 nM	101.7%	O=C(NO)c1ccc(Cn2nnnc2-c2ccccn2)cc1 [comp. 20, N-hydroxy-4-((5-(pyridin-2-yl)-1H-tetrazol-1-yl)methyl)benzamide]	1120 nM	2000 nM	–	–	–	–	–

— patent publication US11351178B2, “Selective HDAC6 inhibitors” (ITALFARMACO S.P.A., priority 2017, dated 2022)
